Laboratory results reported in US12016870B2, “Agents for use in the treatment of cardiac arrhythmia” (priority 2018, dated 2024).

Columns and labels:
[1] = system: tissue engineered strands of rat ventricular cardiomyocytes; test: Conduction velocity along linear tissue engineered cardiomyocyte strands, optical recording with di-8-ANEPPS; format: cell-based; details: for Conduction velocity (CV) along strands of cardiomyocytes: mean+/-SD
Method: The effects of Gb3 on impulse propagation characteristics were investigated in tissue engineered strands of rat ventricular cardiomyocytes where impulse propagation was recorded using the voltage sensitive dye di-8-ANEPPS as described below.
(§1) Impulse propagation along the patterned preparations was followed optically using a fast voltage-sensitive dye (Rohr et al., 1994, Biophys J., 67(3):1301-1315). In short, the preparations were stained for 3 to 4 minutes with 1 mL of the superfusion solution containing […] of the voltage-sensitive dye di-8-ANEPPS (Molecular Probes). The dye was excited by a short-arc xenon lamp driven by a low-ripple power supply (Optiquip). The light was, after passing a shutter (VS25S21 MO, Vincent Assoc), short-pass filtered (570 EFSP, Omega) and deflected toward the objective by means of a dichroic mirror (575 nm; Omega). Emitted fluorescence from the preparation was long-pass filtered (590 nm, Omega) and projected onto a 2-dimensional array of 379 optical fibers, which formed a hexagonal array (Rohr et al., 1998, Biophys J., 75(2):1062-1075). From the entire array, ≤80 fibers were selected according to the shape of a given preparation and were connected to individual photodiodes. The resulting photocurrents were converted to voltages and amplified (typical overall gain of 2.5×10^9 V/A f0=1.6 kHz). The conditioned signals were simultaneously sampled at 20 kHz/channel by a computer-based data acquisition system. Experiments were performed with a 20×, 0.75 numerical aperture (NA) objective (each detector monitored a circular area with a diameter of 50 um corresponding to 4 to 10 cells contributing to the signal) permitting assessment of activation along the preparations for distances up to 1 mm.
After mounting the preparations in the experimental chamber, control superfusion was started (Hanks' balanced salt solution (HBSS), containing (mmol/L) NaCl 137, KCl 5.4, CaCl2 1.3, MgSO4 0.8, NaHCO3 4.2, KH2PO4 0.5, NaH2PO4 0.3, and HEPES 10, which was titrated to pH 7.40 with NaOH). The preparations were stimulated with bipolar electrodes consisting of glass micropipettes (filling, HBSS with 1% agar) and a silver wire coiled around the shank of the electrode. The electrodes were attached to micromanipulators (DC-3K, Marzhauser) and placed at a sufficient distance from the measurement site (1 mm) to (1) avoid electronically mediated stimulation artifacts to distort the signal of interest and (2) permit propagation to reach steady-state conditions at the site of the measurement. Rectangular impulses (duration, 1 ms; 2-3 times threshold intensity) were delivered to the preparations at a basic cycle length of 500 ms by a stimulator (SD9, Grass Instruments) for at least 10 seconds before a given optical recording. All experiments were performed at a temperature of 36+/−0.4° C.
The raw data were analyzed by programming routines written in Interactive Data Language (IDL; Creaso). The data processing typically involved manual selection of the upstroke portions of the action potentials to omit any signal distortion due to motion artifacts occurring several milliseconds after the upstrokes. The data were digitally low-pass filtered and signal amplitudes obtained under control conditions were set to 100%.
While control preparations conducted action potentials (APs) at a speed of 321.8±20.9 mm/sec (N=15), CVs in strands incubated with 10 nM Gb3 were increased by over 20% to 390.2±21.3 mm/sec (N=6, p<0.0001 versus control).

[2] = system: multi-junction preparations (branched tissue architecture) of rat cardiomyocytes; test: Conduction velocity in branched (multi-junction) cardiomyocyte preparations, model of discontinuous conduction; format: cell-based; details: 10 nmol/L Gb3 for 24 hrs
Method: as §1, with “The resulting photocurrents were converted to voltages and amplified (typical overall gain of 2.5×10^9 V/A f0=1.6 kHz). The conditioned signals were simultaneously sampled at 20 kHz/channel by a computer-based data acquisition system.” left out, “mm. […]” for “mm.”
The raw data were analyzed by programming routines written in Interactive Data Language (IDL; Creaso). […]

globotriaosylceramide [Gb3]
Increase of CV versus control ([1]; 10 nM Gb3, 24 hours exposure): over 20%
Conduction velocity (CV) along strands of cardiomyocytes ([1]; 10 nM Gb3, 24 hours exposure, N=6, p<0.0001 versus control (control 321.8±20.9 mm/sec)): 390.2±21.3 mm/sec
Conduction velocity (CV) along strands of cardiomyocytes ([1]; 100 nM Gb3, 24 hours exposure, p<0.005 vs control): 358.8±20.3 mm/sec
Conduction velocity (CV) along strands of cardiomyocytes ([1]; 1 μM Gb3, 24 hours exposure, p=0.3 vs control): 338.4±27.3 mm/sec
Cytotoxic effects ([1]; all Gb3 concentrations used, 24 hours exposure): None of the concentrations of Gb3 used were associated with cytotoxic effects
Increase in CV in branched preparations treated with Gb3 ([2]; versus control branched preparations): ~67%
CV in multi-junction preparations as % of linear strands ([2]; N=25, normalized to linear strands grown in parallel (control multi-junction 57.4±6.7%)): 84.7±2.3%
